Test results from paper PMC12169749, “Isolation, biochemical characterization, and primary structure and active site determination of Dioscorea opposita (‘Nagaimo’) oligopeptidase B” (Biochemistry and Biophysics Reports, 2025).
pIC50: −log10 of the molar value. Numbered stars: 1 amine (or outer) side, 2 acyl side, 3 side chain; on linkers, the order of the positions; unused ones are H or OH. Peptide text beside a SMILES is read from it. * marks the point of attachment. AMC = Cc1cc(=O)oc2cc(N*)ccc12; Cbz = O=C(OCc1ccccc1)*; Boc = CC(C)(C)OC(=O)*; CO = O=C([*:1])[*:2]

Test system: T1, oligopeptidase B (OPB); Nagaimo protease
T1 construct: native, purified from tubers; monomer, 75 kDa by gel filtration, 81 kDa by reducing SDS-PAGE; internal tryptic peptide SAGGLLMGAVLNMR
Test: fluorometric AMC release, Lineweaver-Burk
Format: biochemical, Dioscorea polystachya
Settings: Tris-HCl pH 8.0, 37 °C
From the text: fluorometric AMC release, Lineweaver-Burk on oligopeptidase B (OPB); Nagaimo protease

Row | Km | Compound
1 | 17.9 µM | Cc1cc(=O)oc2cc(NC(=O)[C@@H](N)CCCNC(=N)N)ccc12 [Arg-MCA]
2 | 15 µM | Cc1cc(=O)oc2cc(NC(=O)[C@H](CCCNC(=N)N)NC(=O)[C@H](CCCNC(=N)N)NC(=O)[C@H](CCC(N)=O)NC(=O)OC(C)(C)C)ccc12 [Boc-Gln-Arg-Arg-MCA] (Boc-Gln-Arg-Arg-{AMC})
3 | 5 µM | Cc1cc(=O)oc2cc(NC(=O)[C@H](CCCCN)NC(=O)[C@H](CCCCN)NC(=O)[C@H](CCC(=O)O)NC(=O)OC(C)(C)C)ccc12 [Boc-Glu-Lys-Lys-MCA] (Boc-Glu-Lys-Lys-{AMC})
4 | 10 µM | Cc1cc(=O)oc2cc(NC(=O)[C@H](CCCCN)NC(=O)[C@H](CC(C)C)NC(=O)[C@@H](NC(=O)OC(C)(C)C)C(C)C)ccc12 [Boc-Val-Leu-Lys-MCA] (Boc-Val-Leu-Lys-{AMC})
5 | 12.5 µM | Cc1cc(=O)oc2cc(NC(=O)[C@H](CCCNC(=N)N)NC(=O)[C@@H]3CCCN3C(=O)[C@@H](NC(=O)OC(C)(C)C)C(C)C)ccc12 [Boc-Val-Pro-Arg-MCA] (Boc-Val-Pro-Arg-{AMC})
6 | 10 µM | Cc1cc(=O)oc2cc(NC(=O)[C@H](CCCNC(=N)N)NC(=O)c3ccccc3)ccc12 [Bz-Arg-MCA]
7 | 10 µM | Cc1cc(=O)oc2cc(NC(=O)[C@H](CCCNC(=N)N)NC(=O)[C@H](Cc3ccccc3)NC(=O)[C@@H]3CCCN3)ccc12 [Pro-Phe-Arg-MCA] (H-Pro-Phe-Arg-{AMC})
8 | 10 µM | Cc1cc(=O)oc2cc(NC(=O)[C@H](CCCNC(=N)N)NC(=O)[C@H](CCCNC(=N)N)NC(=O)OCc3ccccc3)ccc12 [Z-Arg-Arg-MCA] (Cbz-Arg-Arg-{AMC})
9 | 11.8 µM | Cc1cc(=O)oc2cc(NC(=O)[C@H](CCCNC(=N)N)NC(=O)[C@@H]3CCCN3C(=O)CNC(=O)OCc3ccccc3)ccc12 [Z-Gly-Pro-Arg-MCA] (Cbz-Gly-Pro-Arg-{AMC})
10 | 12.5 µM | Cc1cc(=O)oc2cc(NC(=O)[C@H](CCCNC(=N)N)NC(=O)[C@H](CC(C)C)NC(=O)OCc3ccccc3)ccc12 [Z-Leu-Arg-MCA]
11 | 11 µM | Cc1cc(=O)oc2cc(NC(=O)[C@H](CCCNC(=N)N)NC(=O)[C@H](Cc3ccccc3)NC(=O)OCc3ccccc3)ccc12 [Z-Phe-Arg-MCA] (Cbz-Phe-Arg-{AMC})
12 | 10 µM | Cc1cc(=O)oc2cc(NC(=O)[C@H](CCCNC(=N)N)NC(=O)[C@@H](NC(=O)[C@@H](NC(=O)OCc3ccccc3)C(C)C)C(C)C)ccc12 [Z-Val-Val-Arg-MCA] (Cbz-Val-Val-Arg-{AMC})

Target: T1, oligopeptidase B (OPB); Nagaimo protease
Test: fluorometric AMC release, inhibitor titration
Format: biochemical, Dioscorea polystachya
Settings: 100 μM Bz-Arg-MCA, 50 mM Tris-HCl pH 8.0, 10 min preincubation at 23 °C, assay 37 °C
From the text: fluorometric AMC release, inhibitor titration on oligopeptidase B (OPB); Nagaimo protease

Row | pIC50 | Compound
13 | 6.68 | CC(C)[C@H](NC(=O)[C@H](CCCNC(=N)N)NC(=O)N[C@@H](Cc1ccccc1)C(=O)O)C(=O)N[C@H](C=O)CCCNC(=N)N [Antipain] ({Phe-CO}-Arg-Val-Arg-aldehyde)
14 | 6.92 | CC(=O)N[C@@H](CC(C)C)C(=O)N[C@@H](CC(C)C)C(=O)N[C@H](C=O)CCCNC(=N)N [Leupeptin]

Same assay, conditions: 100 μM Bz-Arg-MCA, 50 mM Tris-HCl pH 8.0, 10 min preincubation at 23 °C, assay 37 °C; covalent

Row | Compound | pIC50
15 | NCCc1ccc(S(=O)(=O)F)cc1 [AEBSF, 4-(2-aminoethyl)-benzenesulfonyl fluoride] | 6.15
16 | O=c1oc(Cl)c(Cl)c2ccccc12 [DCI, 3,4-dichloroisocoumarin] | 4.52
17 | Cc1ccc(S(=O)(=O)N[C@@H](CCCCN)C(=O)CCl)cc1 [TLCK] | 7.15

Same assay, conditions: 100 μM Bz-Arg-MCA, 50 mM Tris-HCl pH 8.0, 10 min preincubation at 23 °C, assay 37 °C; covalent, cysteine-directed

Row | pIC50 | Compound
18 | 3.06 | CCN1C(=O)C=CC1=O [NEM, N-ethylmaleimide]
